The values below come from patent US11883455B2, “Nigella sativa oil composition” (N.S. OILS LTD., priority 2018, dated 2024).

For the experiment, the system named is production of nitric oxide (NO) by murine macrophages (RAW 264.7 cell line) activated by lipopolysaccharide (LPS). Put plainly: Nitric oxide (NO) release by LPS-activated RAW 264.7 macrophages, Griess Reagent System. The experiment is classed as cell-based. The protocol:
In addition, positive control cells were treated with 20 μM dexamethasone.

As for `Cc1ccc(C(C)C)cc1O` [carvacrol], under “carvacrol only 0.05%, 0.1%, 0.15% solutions, dilutions 1:500,000, 1:200,000, 1:100,000”, the “NO inhibition by carvacrol alone” value is reported as “None of the carvacrol-only dilutions caused any NO inhibition”.

In the case of `Cc1ccc(C(C)C)cc1` [p-cymene], the “NO inhibition by p-cymene alone” value (p-cymene only 0.1%, 0.25%, 0.5%, 0.75% solutions, final dilution 1:200,000) is “None of the p-cymene-only dilutions caused any NO inhibition”.
